In PubChem BioAssay (NCI):
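Exposure lasted 48 hours, with cells grown in 96-well plates and compounds tested at five concentrations. Abbreviation: GI50, concentration required for 50% inhibition of growth. TGI is the concentration that stops growth completely.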 Activity calls are given as the source filed them. Cut-off read from the data, not from the text of the source: active = GI50 below about 0.43 µM; inactive = the rest.

Assays:
Experiment in all cases: NCI anticancer screen, dose series, 48 h
786-0 renal = test system: 786-0 renal
A549 NSCLC = test system: A549 NSCLC
ACHN renal = test system: ACHN renal
BT-549 breast = test system: BT-549 breast
CAKI-1 renal = test system: CAKI-1 renal
CCRF-CEM leukemia = test system: CCRF-CEM leukemia
COLO 205 colon = test system: COLO 205 colon
DU-145 prostate = test system: DU-145 prostate
EKVX NSCLC = test system: EKVX NSCLC
HCC-2998 colon = test system: HCC-2998 colon
HCT-116 colon = test system: HCT-116 colon
HCT-15 colon = test system: HCT-15 colon
HL-60(TB) leukemia = test system: HL-60(TB) leukemia
HOP-62 NSCLC = test system: HOP-62 NSCLC
HOP-92 NSCLC = test system: HOP-92 NSCLC
HS 578T breast = test system: HS 578T breast
IGROV1 ovarian = test system: IGROV1 ovarian
K-562 leukemia = test system: K-562 leukemia
KM12 colon = test system: KM12 colon
LOX IMVI melanoma = test system: LOX IMVI melanoma
M14 melanoma = test system: M14 melanoma
MCF7 breast = test system: MCF7 breast
MDA-MB-231 breast = test system: MDA-MB-231 breast
MDA-MB-435 = test system: MDA-MB-435
MOLT-4 leukemia = test system: MOLT-4 leukemia
NCI-H226 lung = test system: NCI-H226 lung
NCI-H23 lung = test system: NCI-H23 lung
NCI-H460 lung = test system: NCI-H460 lung
NCI-H522 lung = test system: NCI-H522 lung
NCI/ADR-RES ovarian = test system: NCI/ADR-RES ovarian
OVCAR-3 ovarian = test system: OVCAR-3 ovarian
OVCAR-4 ovarian = test system: OVCAR-4 ovarian
OVCAR-5 ovarian = test system: OVCAR-5 ovarian
OVCAR-8 ovarian = test system: OVCAR-8 ovarian
PC-3 prostate = test system: PC-3 prostate
RPMI-8226 leukemia = test system: RPMI-8226 leukemia
RXF 393 renal = test system: RXF 393 renal
SF-268 CNS = test system: SF-268 CNS
SF-295 CNS = test system: SF-295 CNS
SF-539 CNS = test system: SF-539 CNS
SK-MEL-2 melanoma = test system: SK-MEL-2 melanoma
SK-MEL-28 melanoma = test system: SK-MEL-28 melanoma
SK-MEL-5 melanoma = test system: SK-MEL-5 melanoma
SK-OV-3 ovarian = test system: SK-OV-3 ovarian
SN12C renal = test system: SN12C renal
SNB-19 CNS = test system: SNB-19 CNS
SR leukemia = test system: SR leukemia
SW-620 colon = test system: SW-620 colon
TK-10 renal = test system: TK-10 renal
U251 CNS = test system: U251 CNS
UACC-257 melanoma = test system: UACC-257 melanoma
UACC-62 melanoma = test system: UACC-62 melanoma
UO-31 renal = test system: UO-31 renal
A498 renal = test system: A498 renal
HT29 colon = test system: HT29 colon
MALME-3M melanoma = test system: MALME-3M melanoma
SNB-75 CNS = test system: SNB-75 CNS
T-47D breast = test system: T-47D breast

Cc1cc(S(=O)(=O)/N=C/N(C)C)c(SC(=O)c2ccc(Cl)cc2)cc1Cl
GI50 (786-0 renal): 23.8 µM
TGI (786-0 renal): 67.2 µM
GI50 (A549 NSCLC): 34.1 µM
TGI (A549 NSCLC): 85.2 µM
GI50 (ACHN renal): 22.7 µM
TGI (ACHN renal): 47.1 µM
GI50 (BT-549 breast): 18.7 µM
TGI (BT-549 breast): 50.4 µM
GI50 (CAKI-1 renal): 36.6 µM
TGI (CAKI-1 renal): 92.3 µM
GI50 (CCRF-CEM leukemia): 32.4 µM
TGI (CCRF-CEM leukemia): > 100 µM
GI50 (COLO 205 colon): 55.9 µM
TGI (COLO 205 colon): > 100 µM
GI50 (DU-145 prostate): 19.1 µM
TGI (DU-145 prostate): > 100 µM
GI50 (EKVX NSCLC): 17.4 µM
TGI (EKVX NSCLC): 51.1 µM
GI50 (HCC-2998 colon): 17.9 µM
TGI (HCC-2998 colon): 38.2 µM
GI50 (HCT-116 colon): 24.1 µM
TGI (HCT-116 colon): 59.3 µM
GI50 (HCT-15 colon): 19.2 µM
TGI (HCT-15 colon): 37 µM
GI50 (HL-60(TB) leukemia): 42.5 µM
TGI (HL-60(TB) leukemia): > 100 µM
GI50 (HOP-62 NSCLC): 41.8 µM
TGI (HOP-62 NSCLC): > 100 µM
GI50 (HOP-92 NSCLC): 28.9 µM
TGI (HOP-92 NSCLC): > 100 µM
GI50 (HS 578T breast): 20.7 µM
TGI (HS 578T breast): 65 µM
GI50 (IGROV1 ovarian): 38.5 µM
TGI (IGROV1 ovarian): > 100 µM
GI50 (K-562 leukemia): 46.5 µM
TGI (K-562 leukemia): > 100 µM
GI50 (KM12 colon): 39.1 µM
TGI (KM12 colon): > 100 µM
GI50 (LOX IMVI melanoma): 19.1 µM
TGI (LOX IMVI melanoma): 35.2 µM
GI50 (M14 melanoma): 89.8 µM
TGI (M14 melanoma): > 100 µM
GI50 (MCF7 breast): 37.1 µM
TGI (MCF7 breast): > 100 µM
GI50 (MDA-MB-231 breast): 25.8 µM
TGI (MDA-MB-231 breast): 69.9 µM
GI50 (MDA-MB-435): 25.1 µM
TGI (MDA-MB-435): 70.4 µM
GI50 (MOLT-4 leukemia): 61 µM
TGI (MOLT-4 leukemia): > 100 µM
GI50 (NCI-H226 lung): 27.8 µM
TGI (NCI-H226 lung): 87.2 µM
GI50 (NCI-H23 lung): 23.2 µM
TGI (NCI-H23 lung): 56.2 µM
GI50 (NCI-H460 lung): 56.5 µM
TGI (NCI-H460 lung): > 100 µM
GI50 (NCI-H522 lung): 47.9 µM
TGI (NCI-H522 lung): > 100 µM
GI50 (NCI/ADR-RES ovarian): 28.4 µM
TGI (NCI/ADR-RES ovarian): 72.2 µM
GI50 (OVCAR-3 ovarian): 33.3 µM
TGI (OVCAR-3 ovarian): 91.1 µM
GI50 (OVCAR-4 ovarian): 60.1 µM
TGI (OVCAR-4 ovarian): > 100 µM
GI50 (OVCAR-5 ovarian): 48.6 µM
TGI (OVCAR-5 ovarian): > 100 µM
GI50 (OVCAR-8 ovarian): 40.9 µM
TGI (OVCAR-8 ovarian): > 100 µM
GI50 (PC-3 prostate): 27.6 µM
TGI (PC-3 prostate): 90.8 µM
GI50 (RPMI-8226 leukemia): 25.4 µM
TGI (RPMI-8226 leukemia): 80.6 µM
GI50 (RXF 393 renal): 11.5 µM
TGI (RXF 393 renal): 35.7 µM
GI50 (SF-268 CNS): 50.8 µM
TGI (SF-268 CNS): > 100 µM
GI50 (SF-295 CNS): 50.9 µM
TGI (SF-295 CNS): > 100 µM
GI50 (SF-539 CNS): 26.7 µM
TGI (SF-539 CNS): 52.1 µM
GI50 (SK-MEL-2 melanoma): 45.8 µM
TGI (SK-MEL-2 melanoma): > 100 µM
GI50 (SK-MEL-28 melanoma): 48.9 µM
TGI (SK-MEL-28 melanoma): > 100 µM
GI50 (SK-MEL-5 melanoma): 10.8 µM
TGI (SK-MEL-5 melanoma): 36.5 µM
GI50 (SK-OV-3 ovarian): > 100 µM
TGI (SK-OV-3 ovarian): > 100 µM
GI50 (SN12C renal): 26.8 µM
TGI (SN12C renal): 79.8 µM
GI50 (SNB-19 CNS): 53.8 µM
TGI (SNB-19 CNS): > 100 µM
GI50 (SR leukemia): 44.6 µM
TGI (SR leukemia): > 100 µM
GI50 (SW-620 colon): 27.6 µM
TGI (SW-620 colon): 72.3 µM
GI50 (TK-10 renal): 28.2 µM
TGI (TK-10 renal): 80.7 µM
GI50 (U251 CNS): 27 µM
TGI (U251 CNS): 71.1 µM
GI50 (UACC-257 melanoma): > 100 µM
TGI (UACC-257 melanoma): > 100 µM
GI50 (UACC-62 melanoma): 29.9 µM
TGI (UACC-62 melanoma): > 100 µM
GI50 (UO-31 renal): > 100 µM
TGI (UO-31 renal): > 100 µM

S=C(Nc1ccc(N=Nc2ccccc2)cc1)SCc1ccccc1
TGI (786-0 renal): 38 µM
TGI (A498 renal): 43.7 µM
TGI (A549 NSCLC): 35.8 µM
TGI (ACHN renal): 31.3 µM
TGI (BT-549 breast): 40.3 µM
TGI (CAKI-1 renal): 32.9 µM
TGI (CCRF-CEM leukemia): 36.1 µM
TGI (COLO 205 colon): 42.1 µM
TGI (DU-145 prostate): 29.6 µM
TGI (EKVX NSCLC): 48.6 µM
TGI (HCT-116 colon): 31.9 µM
TGI (HCT-15 colon): 28.3 µM
TGI (HOP-62 NSCLC): 41.3 µM
TGI (HOP-92 NSCLC): 30.4 µM
TGI (HS 578T breast): 61.5 µM
TGI (HT29 colon): 52.1 µM
TGI (IGROV1 ovarian): 32.6 µM
TGI (K-562 leukemia): 39.9 µM
TGI (KM12 colon): 30.6 µM
TGI (LOX IMVI melanoma): 38.5 µM
TGI (M14 melanoma): 37.6 µM
TGI (MALME-3M melanoma): 22.9 µM
TGI (MCF7 breast): 64.6 µM
TGI (MDA-MB-231 breast): 28.9 µM
TGI (MDA-MB-435): 36.4 µM
TGI (MOLT-4 leukemia): 27.9 µM
TGI (NCI-H226 lung): 39 µM
TGI (NCI-H23 lung): 30.7 µM
TGI (NCI-H460 lung): 39.5 µM
TGI (NCI-H522 lung): 36.2 µM
TGI (NCI/ADR-RES ovarian): 35.1 µM
TGI (OVCAR-3 ovarian): 29.4 µM
TGI (OVCAR-4 ovarian): 33.2 µM
TGI (OVCAR-8 ovarian): 22.5 µM
TGI (PC-3 prostate): 30.6 µM
TGI (RPMI-8226 leukemia): 33.3 µM
TGI (RXF 393 renal): 46.4 µM
TGI (SF-268 CNS): 36.6 µM
TGI (SF-295 CNS): 34.4 µM
TGI (SF-539 CNS): 34.5 µM
TGI (SK-MEL-2 melanoma): 50 µM
TGI (SK-MEL-28 melanoma): 38 µM
TGI (SK-MEL-5 melanoma): 29.6 µM
TGI (SK-OV-3 ovarian): 98 µM
TGI (SN12C renal): 29.2 µM
TGI (SNB-19 CNS): 39.4 µM
TGI (SNB-75 CNS): 44.2 µM
TGI (SW-620 colon): 44.5 µM
TGI (T-47D breast): > 100 µM
TGI (TK-10 renal): 25.5 µM
TGI (U251 CNS): 29.7 µM
TGI (UACC-257 melanoma): 33.3 µM
TGI (UACC-62 melanoma): 31.8 µM
TGI (UO-31 renal): 34.9 µM

O=c1c2ccccc2c(=O)c2c1c1[nH]c3ccccc3c1c1c(=O)c3ccccc3c(=O)c21
outcome (MOLT-4 leukemia): inactive
outcome (RPMI-8226 leukemia): inactive
outcome (SR leukemia): inactive
